Measurements from ChEMBL document CHEMBL3124815, “Discovery of a selective kinase inhibitor (TAK-632) targeting pan-RAF inhibition: design, synthesis, and biological evaluation of C-7-substituted 1,3-benzothiazole derivatives” (J Med Chem, 2013).

What was measured:
[1] = Mean residence time in rat at 1 mg/kg, iv; assay type: ADME, organism-based; design: dose 1 mg/kg, route intravenous; conditions: in vivo
[2] = biological target: T1, Serine/threonine-protein kinase B-raf (Homo sapiens, UniProt P15056, V600E); assay: Inhibition of BRAF V600E mutant in human HT-29 cells assessed as phosphorylation of MEK; assay type: cell-based
Insulin receptor = Insulin receptor (Homo sapiens, UniProt P06213); assay: Inhibition of Insulin receptor (unknown origin) using biotinylated poly-Glu-Tyr (4:1) as substrate preincubated for 5 mins measured after 12 hrs
Rattus norvegicus [3] = assay: Toxicity in F344 nude rat xenografted with human HMVII cells expressing NRAS Q61K/BRAF G469V mutant assessed as body weight change at 24.1 mg/kg, po bid for 14 days; assay type: organism-based; design: dose 24.1 mg/kg, route oral; conditions: in vivo, 336 h
[4] = biological target: Serine/threonine-protein kinase B-raf (Homo sapiens, UniProt P15056); assay: Inhibition of N-terminal FLAG-tagged wild type BRAF (unknown origin) expressed in baculovirus system using GST-MEK1(K96R) as substrate after 20 mins
[5] = biological target: T2, RAF proto-oncogene serine/threonine-protein kinase (Homo sapiens, UniProt P04049); assay: Inhibition of N-terminal FLAG-tagged wild type C-RAF (unknown origin) expressed in baculovirus system using GST-MEK1(K96R) as substrate after 20 mins
[6] = Mean residence time in dog at 10 mg/kg, po; assay type: ADME, organism-based, Canis lupus familiaris; design: dose 10 mg/kg, route oral; conditions: in vivo
[7] = biological target: Serine/threonine-protein kinase Chk1 (Homo sapiens, UniProt O14757); assay: Inhibition of CHK1 (unknown origin) using alpha-casein as substrate after 20 mins
[8] = biological target: Receptor tyrosine-protein kinase erbB-2 (Homo sapiens, UniProt P04626); assay: Inhibition of N-terminal peptide (DYKDDDD)-tagged HER2 (unknown origin) expressed in baculovirus system using biotinylated poly-Glu-Tyr (4:1) as substrate preincubated for 5 mins measured after 12 hrs by scintillation counting
[9] = biological target: T2, RAF proto-oncogene serine/threonine-protein kinase; assay: Binding affinity to CRAF (unknown origin) assessed as equilibrium dissociation constant by surface plasmon resonance analysis
[10] = biological target: Cyclin-dependent kinase 1/cyclin B1 (Homo sapiens, UniProt P06493); assay: Inhibition of CDK1/CycB (unknown origin) using histone H1 as substrate after 20 mins; assay type: protein-complex assay
[11] = biological target: T2, RAF proto-oncogene serine/threonine-protein kinase; assay: Inhibition of CRAF (unknown origin) in presence of 1000 uM ATP by ELISA
[12] = biological target: T2, RAF proto-oncogene serine/threonine-protein kinase
Description: Binding affinity to CRAF (unknown origin) assessed as dissociation half life by surface plasmon resonance analysis

Angiopoietin-1 receptor = Angiopoietin-1 receptor (Homo sapiens, UniProt Q02763); assay: Inhibition of TIE2 receptor (unknown origin) using biotinylated poly-Glu-Tyr (4:1) as substrate preincubated for 5 mins measured after 12 hrs
A-375 [13] = assay: Antiproliferative activity against human A375 cells assessed as growth inhibition after 72 hrs by chemi-luminescence cell viability assay; assay type: functional; conditions: A-375, 72 h
[14] = Antiproliferative activity against human HMVII cells assessed as growth inhibition after 72 hrs by chemi-luminescence cell viability assay; assay type: functional; conditions: HMV-2, 72 h
Rattus norvegicus [15] = assay: Toxicity in F344 nude rat xenografted with human A375 cells expressing BRAF V600E mutant assessed as body weight change at 9.7 mg/kg, po bid for 14 days relative to control; assay type: organism-based, A-375; design: dose 9.7 mg/kg, route oral; conditions: in vivo, 336 h
[16] = Total clearance in rat at 1 mg/kg, iv; assay type: ADME, organism-based; design: dose 1 mg/kg, route intravenous; conditions: in vivo
[17] = Antitumor activity against human HMVII cells expressing NRAS Q61K/BRAF G469V mutant xenografted in F344 nude rat assessed as reduction in tumor size at 9.7 mg/kg, po bid for 14 days relative to control; assay type: functional, HMV-2
[18] = biological target: T1, Serine/threonine-protein kinase B-raf; assay: Inhibition of BRAF V600E mutant in human A375 cells assessed as phosphorylation of MEK after 2 hrs by Western blotting analysis; assay type: cell-based, A-375
[19] = AUC (0 to 24 hrs) in rat at 25 mg/kg, po; assay type: ADME, organism-based; design: time < 24 hr, dose 25 mg/kg, route oral; conditions: plasma
[20] = biological target: Mitogen-activated protein kinase 14 (Homo sapiens, UniProt Q16539); assay: Inhibition of C-terminal FLAG-tagged p38 alpha (unknown origin) expressed in baculovirus system using MBP as substrate after 60 mins
[21] = biological target: Mast/stem cell growth factor receptor Kit (Homo sapiens, UniProt P10721); assay: Inhibition of c-Kit receptor (unknown origin) using biotinylated poly-Glu-Tyr (4:1) as substrate preincubated for 5 mins measured after 12 hrs
[22] = Volume of distribution at steady state in dog at 1 mg/kg, iv; assay type: ADME, organism-based, Canis lupus familiaris; design: dose 1 mg/kg, route intravenous; conditions: in vivo, read-out: Vdss
Mus musculus = assay: AUC (0 to 8 hrs) in mouse at 10 mg/kg, po; assay type: ADME, organism-based, Blood; design: time < 8 hr, dose 10 mg/kg, route oral; conditions: in vivo
[23] = biological target: Mitogen-activated protein kinase 8 (Homo sapiens, UniProt P45983); assay: Inhibition of C-terminal FLAG-tagged JNK1 (unknown origin) expressed in baculovirus system using c-jun as substrate after 60 mins
[24] = biological target: Platelet-derived growth factor receptor beta (Homo sapiens, UniProt P09619); assay: Inhibition of PDGFR beta (unknown origin) using biotinylated poly-Glu-Tyr (4:1) as substrate preincubated for 5 mins measured after 12 hrs
CDK2/Cyclin A2 = CDK2/Cyclin A2 (Homo sapiens, UniProt P24941); assay: Inhibition of CDK2/CycA (unknown origin) using histone H1 as substrate after 20 mins; assay type: protein-complex assay
[25] = Inhibition of NRASQ61k/BRAFG469V-mutant in human HMVII cells assessed as phosphorylation of ERK after 2 hrs by Western blotting analysis; assay type: cell-based
[26] = AUC (0 to 24 hrs) in dog at 1 mg/kg, iv; assay type: ADME, organism-based, Canis lupus familiaris; design: time < 24 hr, dose 1 mg/kg, route intravenous; conditions: plasma
[27] = Antitumor activity against human HMVII cells expressing NRAS Q61K/BRAF G469V mutant xenografted in F344 nude rat assessed as reduction in tumor size at 24.1 mg/kg, po bid for 14 days relative to control; assay type: functional, HMV-2
A-375 [28] = assay: Antitumor activity against human A375 cells expressing BRAF V600E mutant xenografted in F344 nude rat assessed as reduction in tumor size at 3.9 mg/kg, po bid for 14 days relative to control; assay type: functional
[29] = biological target: Glycogen synthase kinase-3 beta (Homo sapiens, UniProt P49841); assay: Inhibition of C-terminal FLAG-tagged GSK3beta (unknown origin) expressed in baculovirus system after 30 mins
[30] = biological target: Casein kinase I isoform delta (Homo sapiens, UniProt P48730); assay: Inhibition of CK1delta (unknown origin) using CK1tide as substrate after 20 mins
[31] = Mean residence time in dog at 1 mg/kg, iv; assay type: ADME, organism-based, Canis lupus familiaris; design: dose 1 mg/kg, route intravenous; conditions: in vivo
[32] = biological target: T1, Serine/threonine-protein kinase B-raf; assay: Inhibition of BRAF V600E mutant (unknown origin) in presence of 1000 uM ATP by ELISA
A-375 [33] = assay: Antitumor activity against human A375 cells expressing BRAF V600E mutant xenografted in F344 nude rat assessed as reduction in tumor size at 1.9 mg/kg, po bid for 14 days relative to control; assay type: functional

T2 sequence (P04049 whole entry): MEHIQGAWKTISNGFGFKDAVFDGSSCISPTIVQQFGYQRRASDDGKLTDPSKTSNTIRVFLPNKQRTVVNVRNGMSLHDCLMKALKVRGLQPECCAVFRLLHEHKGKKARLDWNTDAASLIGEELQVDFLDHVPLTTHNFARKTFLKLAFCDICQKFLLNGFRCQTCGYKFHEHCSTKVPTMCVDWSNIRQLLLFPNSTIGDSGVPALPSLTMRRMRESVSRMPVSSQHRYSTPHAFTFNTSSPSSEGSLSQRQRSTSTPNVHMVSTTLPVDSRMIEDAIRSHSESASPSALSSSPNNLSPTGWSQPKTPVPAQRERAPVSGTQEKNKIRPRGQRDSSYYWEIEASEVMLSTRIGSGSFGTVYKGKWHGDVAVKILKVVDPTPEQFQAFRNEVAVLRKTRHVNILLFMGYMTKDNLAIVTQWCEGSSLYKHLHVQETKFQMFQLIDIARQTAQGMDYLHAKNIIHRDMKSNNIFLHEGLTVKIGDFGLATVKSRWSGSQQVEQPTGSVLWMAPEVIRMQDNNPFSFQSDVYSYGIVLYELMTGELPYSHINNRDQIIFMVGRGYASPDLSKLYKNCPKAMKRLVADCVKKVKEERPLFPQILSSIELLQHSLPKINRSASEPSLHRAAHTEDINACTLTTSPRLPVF
T1 sequence (P15056 2-766 V600E limits assumed): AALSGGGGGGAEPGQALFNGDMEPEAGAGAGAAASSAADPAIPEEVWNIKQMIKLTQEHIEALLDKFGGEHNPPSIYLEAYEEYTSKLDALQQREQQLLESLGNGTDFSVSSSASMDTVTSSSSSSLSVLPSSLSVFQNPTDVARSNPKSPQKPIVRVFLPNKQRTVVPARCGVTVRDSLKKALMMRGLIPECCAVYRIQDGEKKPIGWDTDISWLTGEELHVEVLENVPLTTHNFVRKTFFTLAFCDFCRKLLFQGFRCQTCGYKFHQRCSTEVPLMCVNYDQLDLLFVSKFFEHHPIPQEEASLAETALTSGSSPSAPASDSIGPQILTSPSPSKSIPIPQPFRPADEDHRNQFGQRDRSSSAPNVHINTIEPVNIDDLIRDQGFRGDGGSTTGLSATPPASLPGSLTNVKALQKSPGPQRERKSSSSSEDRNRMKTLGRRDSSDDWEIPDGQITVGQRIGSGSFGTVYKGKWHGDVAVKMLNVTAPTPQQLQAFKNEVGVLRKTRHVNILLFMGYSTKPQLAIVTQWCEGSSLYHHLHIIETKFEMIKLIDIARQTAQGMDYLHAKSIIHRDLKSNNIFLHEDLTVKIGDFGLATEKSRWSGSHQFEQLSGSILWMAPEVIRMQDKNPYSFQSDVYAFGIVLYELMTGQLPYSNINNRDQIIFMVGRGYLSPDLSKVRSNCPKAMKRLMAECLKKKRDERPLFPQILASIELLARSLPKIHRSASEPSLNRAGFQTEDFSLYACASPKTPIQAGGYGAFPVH
Chain of Mitogen-activated protein kinase 14 (Q16539 whole entry): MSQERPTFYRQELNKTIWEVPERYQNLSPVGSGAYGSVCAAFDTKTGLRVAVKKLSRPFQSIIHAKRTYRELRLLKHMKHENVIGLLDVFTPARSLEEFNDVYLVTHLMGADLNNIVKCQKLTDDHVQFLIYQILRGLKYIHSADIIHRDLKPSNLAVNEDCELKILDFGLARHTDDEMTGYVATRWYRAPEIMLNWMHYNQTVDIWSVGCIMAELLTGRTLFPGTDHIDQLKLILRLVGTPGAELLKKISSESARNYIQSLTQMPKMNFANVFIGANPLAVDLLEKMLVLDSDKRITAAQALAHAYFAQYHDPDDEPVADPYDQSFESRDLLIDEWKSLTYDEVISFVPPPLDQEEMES
Chain of Insulin receptor (P06213 28-758 limits assumed): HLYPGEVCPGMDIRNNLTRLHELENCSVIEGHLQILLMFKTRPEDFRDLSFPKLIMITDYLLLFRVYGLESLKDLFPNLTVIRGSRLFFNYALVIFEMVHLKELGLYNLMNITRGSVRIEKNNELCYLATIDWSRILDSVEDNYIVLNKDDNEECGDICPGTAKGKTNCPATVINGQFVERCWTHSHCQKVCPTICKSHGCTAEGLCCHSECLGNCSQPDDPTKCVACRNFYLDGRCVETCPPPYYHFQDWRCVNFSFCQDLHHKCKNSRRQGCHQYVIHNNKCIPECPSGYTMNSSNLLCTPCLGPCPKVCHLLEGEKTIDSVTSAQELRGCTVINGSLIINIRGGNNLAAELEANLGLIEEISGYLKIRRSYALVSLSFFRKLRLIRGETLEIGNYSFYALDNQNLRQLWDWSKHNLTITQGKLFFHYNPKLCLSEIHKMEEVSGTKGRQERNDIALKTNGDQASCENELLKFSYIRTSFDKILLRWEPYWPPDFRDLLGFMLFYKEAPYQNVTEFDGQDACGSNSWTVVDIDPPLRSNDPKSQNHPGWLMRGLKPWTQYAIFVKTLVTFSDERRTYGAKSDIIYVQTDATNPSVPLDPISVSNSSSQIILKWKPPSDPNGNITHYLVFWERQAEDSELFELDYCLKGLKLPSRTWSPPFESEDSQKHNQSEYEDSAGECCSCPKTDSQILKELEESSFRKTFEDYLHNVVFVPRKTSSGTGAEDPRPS
Chain of Insulin receptor (P06213 763-1382 limits assumed): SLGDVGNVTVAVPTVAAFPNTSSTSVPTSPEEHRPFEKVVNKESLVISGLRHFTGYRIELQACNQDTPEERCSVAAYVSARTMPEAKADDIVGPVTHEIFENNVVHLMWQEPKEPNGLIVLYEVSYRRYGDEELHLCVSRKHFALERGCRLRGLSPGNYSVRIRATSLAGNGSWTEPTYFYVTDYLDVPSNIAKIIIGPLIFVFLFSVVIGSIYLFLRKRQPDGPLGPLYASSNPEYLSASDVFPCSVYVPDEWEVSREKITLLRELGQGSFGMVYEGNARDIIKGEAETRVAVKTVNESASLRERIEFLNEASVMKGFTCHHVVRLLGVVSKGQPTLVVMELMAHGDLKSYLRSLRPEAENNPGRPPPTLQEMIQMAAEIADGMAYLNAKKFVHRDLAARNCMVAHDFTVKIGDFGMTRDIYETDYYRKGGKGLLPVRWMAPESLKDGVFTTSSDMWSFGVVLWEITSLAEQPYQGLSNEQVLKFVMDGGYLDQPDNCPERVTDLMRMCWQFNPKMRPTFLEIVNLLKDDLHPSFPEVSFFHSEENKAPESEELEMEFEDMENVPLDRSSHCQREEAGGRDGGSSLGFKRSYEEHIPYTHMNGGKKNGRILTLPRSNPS
Chain of Serine/threonine-protein kinase Chk1 (O14757 whole entry): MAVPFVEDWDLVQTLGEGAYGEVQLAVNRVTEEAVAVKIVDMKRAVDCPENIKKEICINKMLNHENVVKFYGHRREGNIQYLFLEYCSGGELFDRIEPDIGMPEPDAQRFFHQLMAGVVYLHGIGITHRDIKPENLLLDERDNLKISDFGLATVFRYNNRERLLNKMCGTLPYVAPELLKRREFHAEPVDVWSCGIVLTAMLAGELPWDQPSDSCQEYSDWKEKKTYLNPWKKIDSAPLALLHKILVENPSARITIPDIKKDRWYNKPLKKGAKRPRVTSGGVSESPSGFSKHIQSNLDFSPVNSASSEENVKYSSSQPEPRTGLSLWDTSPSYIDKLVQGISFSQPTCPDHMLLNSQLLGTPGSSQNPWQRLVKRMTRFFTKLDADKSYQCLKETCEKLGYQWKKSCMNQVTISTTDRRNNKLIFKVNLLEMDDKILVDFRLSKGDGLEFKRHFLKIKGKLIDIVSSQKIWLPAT
Chain of Platelet-derived growth factor receptor beta (P09619 whole entry): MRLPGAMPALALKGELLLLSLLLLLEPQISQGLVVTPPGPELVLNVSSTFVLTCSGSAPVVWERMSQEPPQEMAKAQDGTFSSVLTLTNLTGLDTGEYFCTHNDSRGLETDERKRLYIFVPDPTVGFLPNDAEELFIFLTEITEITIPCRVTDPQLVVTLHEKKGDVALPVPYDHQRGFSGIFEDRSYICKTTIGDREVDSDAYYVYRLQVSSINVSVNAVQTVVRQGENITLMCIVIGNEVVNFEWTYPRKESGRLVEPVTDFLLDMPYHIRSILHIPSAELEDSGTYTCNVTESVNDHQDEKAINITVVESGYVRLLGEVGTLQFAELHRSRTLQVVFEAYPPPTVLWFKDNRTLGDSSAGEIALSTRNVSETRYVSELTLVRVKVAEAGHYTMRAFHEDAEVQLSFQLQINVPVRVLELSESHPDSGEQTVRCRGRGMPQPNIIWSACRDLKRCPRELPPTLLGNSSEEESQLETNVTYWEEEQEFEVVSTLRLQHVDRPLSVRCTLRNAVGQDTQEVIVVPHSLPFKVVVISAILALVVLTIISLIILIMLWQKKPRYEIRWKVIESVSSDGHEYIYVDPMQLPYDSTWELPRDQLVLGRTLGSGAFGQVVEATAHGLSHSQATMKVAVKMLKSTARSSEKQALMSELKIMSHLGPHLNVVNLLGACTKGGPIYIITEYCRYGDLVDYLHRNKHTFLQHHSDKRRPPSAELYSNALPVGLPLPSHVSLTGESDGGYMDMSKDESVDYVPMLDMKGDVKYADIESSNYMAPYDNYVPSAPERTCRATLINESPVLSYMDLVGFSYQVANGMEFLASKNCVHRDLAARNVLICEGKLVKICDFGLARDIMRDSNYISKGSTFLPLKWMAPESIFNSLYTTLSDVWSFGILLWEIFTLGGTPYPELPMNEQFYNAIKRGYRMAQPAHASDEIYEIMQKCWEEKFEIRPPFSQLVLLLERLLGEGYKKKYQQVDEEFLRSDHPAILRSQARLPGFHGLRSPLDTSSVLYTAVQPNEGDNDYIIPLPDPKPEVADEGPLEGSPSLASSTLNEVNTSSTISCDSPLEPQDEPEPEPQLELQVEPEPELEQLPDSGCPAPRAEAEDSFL

**Q.** Which results are given for `N#Cc1c(Oc2ccc(F)c(NC(=O)Cc3cccc(C(F)(F)F)c3)c2)ccc2nc(NC(=O)C3CC3)sc12`?
**A.** MRT [1]: 4.69 h; IC50 [2]: 75 nM; IC50 (Insulin receptor): > 10000 nM; Activity (Rattus norvegicus [3]): 28.4 g; IC50 [4]: 8.3 nM; IC50 [5]: 1.4 nM; MRT [6]: 7.12 h; IC50 [7]: 1400 nM; IC50 [8]: > 10000 nM; Kd [9]: 0.52 nM; IC50 [10]: 790 nM; IC50 [11]: 62 nM; T1/2 [12]: 2.15 h; IC50 (Angiopoietin-1 receptor): 740 nM; GI50 (A-375 [13]): 66 nM; GI50 [14]: 200 nM; Activity (Rattus norvegicus [15]): 14 g; clearance [16]: 6.67 mL/min/kg; T/C [17]: 26%; IC50 [18]: 12 nM; AUC(0-t) at 24 h [19]: 32500 ng·h/mL; IC50 [20]: 600 nM; IC50 [21]: > 10000 nM; Vd [22]: 1.57 L/kg; AUC (Mus musculus): 2480 ng·h/mL; IC50 [23]: > 10000 nM; IC50 [24]: 120 nM; IC50 (CDK2/Cyclin A2): 580 nM; IC50 [25]: 50 nM; AUC(0-t) at 24 h [26]: 1430 ng·h/mL; T/C [27]: 0%; T/C (A-375 [28]): 62.2%; IC50 [29]: 500 nM; IC50 [30]: > 10000 nM; MRT [31]: 2.23 h; IC50 [32]: 58 nM; T/C (A-375 [33]): 103%
